Data reported in PMC7413254 (Nature Communications, 2020).
Like-named read-outs stand apart in the source and are kept apart here.

Tests used:
[1] = target: T1, PfCRT^Dd2 (Plasmodium falciparum, UniProt Q9N623, A220S/I356T/K76T/M74I/N326S/N75E/Q271E/R371I); experiment: [3H]CQ uptake into Xenopus oocytes, cis-inhibition by unlabelled solute; format: cell-based
Outline: (§1)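 Assay buffer ND96 (10 mM MES, 10 mM Tris-base) held at pH 5.5 to mimic vacuole lumen; uptake measured inward from this acidic medium over 1.5 h at 27.5 °C.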

[2] = target: T2, PfCRT^Ecu1110 (Plasmodium falciparum, UniProt Q9N623, A220S/I356L/K76T/N326D); experiment: as above; format: cell-based
Outline: as §1

[3] = test system: non-expressing oocytes; format: cell-based, Xenopus laevis; conditions: total [3H]CQ transport; for Uptake of [3H]CQ (% non-expressing oocyte control), trans-stimulation: non-expressing oocytes, normalised to the oocyte type control; for Uptake of [3H]CQ (% PfCRTDd2 control), trans-stimulation, non-expressing oocytes: mean ± SEM, SEM
Outline: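 Oocytes (ten per treatment, ≥4 independent frogs/days) were preloaded by injecting VF-6 in 25 nL ND96 at pH 5.0, 5.5, 6.0 or 7.0, or Na^+-free choline buffer, then uptake run 1.5 h, 27.5 °C, ND96 pH 5.5 by default. Internal concentrations assumed ~400 nL oocyte volume.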

[4] = test system: PfCRT; experiment: Potential co-substrates tested for influx of VF-6 via PfCRT into the oocyte; format: cell-based, Plasmodium falciparum; parameters: key: X: Compounds that have been tested as potential co-substrates but are not required for influx of VF-6 via PfCRT into the oocyte
[5] = test system: PfCRT; experiment: Test of solutes as potential co-substrates for influx of VF-6 via PfCRT into the oocyte; format: cell-based, Plasmodium falciparum; parameters: key: X: Compounds that have been tested as potential co-substrates but are not required for influx of VF-6 via PfCRT into the oocyte; conditions: X = tested
[6] = target: T3, PfCRT^3D7 (Plasmodium falciparum, UniProt Q8IBZ9); experiment: cell-based; format: cell-based; conditions: total [3H]CQ transport; for inhibition at 500 µM: [test solute] = 0.5 mM; for inhibition at 1000 µM: [test solute] = 1 mM; for inhibition at 2000 µM: [test solute] = 2 mM
Outline: as §1

[7] = test system: non-expressing oocytes; experiment: cells; format: cell-based, Xenopus laevis; conditions: Xenopus laevis, total [3H]CQ transport; for inhibition at 500 µM: [test solute] = 0.5 mM; for inhibition at 1000 µM: [test solute] = 1 mM; for inhibition at 2000 µM: [test solute] = 2 mM
Outline: as §1

[8] = target: T4, PfNT1 (Plasmodium falciparum, UniProt Q8IDM6); experiment: cell-based; format: cell-based; conditions: for activity at 5000 µM: total [3H]CQ transport
T4 construct: expressed in transfected cells; host or cells: Xenopus laevis oocytes (stage V-VI), cRNA-injected
Outline: (§2)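 Transport measured in Xenopus oocytes expressing the transporters, 1.5 h at 27.5 °C in ND96 pH 5.5 unless noted. For trans-stimulation, VF-6 injected in 25 nL ND96 at pH 5.0–7.0 or Na^+-free (choline) buffer; intracellular levels based on ~400 nL oocyte volume. Ten oocytes per treatment, ≥4 experiments.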

[9] = target: T1, PfCRT^Dd2; experiment: cell-based; format: cell-based; conditions: […]; for activity at 45000 µM: [test solute]i = 45 mM (30 mM for some solutes due to solubility)
Outline: as §2

[10] = target: T2, PfCRT^Ecu1110; experiment: cell-based; format: cell-based; conditions: […]
Outline: as §2

[11] = target: T3, PfCRT^3D7; experiment: cell-based; format: cell-based
Outline: as §2

[12] = read-out: PfCRT-mediated [3H]CQ transport, cis-inhibition (% PfCRTDd2 control)
[13] = read-out: Uptake of [3H]CQ (% PfCRTDd2 control), cis-inhibition
[14] = read-out: Uptake of [3H]CQ (% PfCRTDd2 control), cis-inhibition, PfCRTDd2, SEM
[15] = read-out: [3H]CQ transport (% PfCRTDd2 control), cis-inhibition, PfCRTDd2, SEM
[16] = read-out: PfCRT-mediated [3H]CQ transport, cis-inhibition (% PfCRTEcu1110 control)
[17] = read-out: Uptake of [3H]CQ (% PfCRTDd2 control), cis-inhibition, PfCRTEcu1110, SEM
[18] = read-out: Uptake of [3H]CQ (% PfCRTEcu1110 control), cis-inhibition
[19] = read-out: [3H]CQ transport (% PfCRTEcu1110 control), cis-inhibition, PfCRTEcu1110, SEM
[20] = PfCRT3D7 oocytes, normalised to the oocyte type control, read-out: Uptake of [3H]CQ (% PfCRT3D7 control), cis-inhibition
[21] = mean ± SEM, SEM, read-out: Uptake of [3H]CQ (% PfCRTDd2 control), cis-inhibition, PfCRT3D7
[22] = Oocyte, mean ± SEM, SEM, read-out: Uptake of [3H]CQ (% PfCRTDd2 control), cis-inhibition, non-expressing oocytes
[23] = non-expressing oocytes, normalised to the oocyte type control, read-out: Uptake of [3H]CQ (% non-expressing oocyte control), cis-inhibition

T3 sequence (Q8IBZ9 59-398): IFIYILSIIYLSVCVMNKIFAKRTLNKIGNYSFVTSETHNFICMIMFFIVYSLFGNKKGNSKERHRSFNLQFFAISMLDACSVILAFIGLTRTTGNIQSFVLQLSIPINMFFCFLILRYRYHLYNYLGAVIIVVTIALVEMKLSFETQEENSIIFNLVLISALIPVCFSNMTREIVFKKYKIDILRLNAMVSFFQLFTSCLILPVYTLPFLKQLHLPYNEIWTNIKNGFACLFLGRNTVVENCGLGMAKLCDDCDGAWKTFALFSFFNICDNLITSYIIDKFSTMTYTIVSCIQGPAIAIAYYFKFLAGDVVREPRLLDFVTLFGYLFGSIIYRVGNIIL
T1 sequence (Q9N623 whole entry A220S/I356T/K76T/M74I/N326S/N75E/Q271E/R371I): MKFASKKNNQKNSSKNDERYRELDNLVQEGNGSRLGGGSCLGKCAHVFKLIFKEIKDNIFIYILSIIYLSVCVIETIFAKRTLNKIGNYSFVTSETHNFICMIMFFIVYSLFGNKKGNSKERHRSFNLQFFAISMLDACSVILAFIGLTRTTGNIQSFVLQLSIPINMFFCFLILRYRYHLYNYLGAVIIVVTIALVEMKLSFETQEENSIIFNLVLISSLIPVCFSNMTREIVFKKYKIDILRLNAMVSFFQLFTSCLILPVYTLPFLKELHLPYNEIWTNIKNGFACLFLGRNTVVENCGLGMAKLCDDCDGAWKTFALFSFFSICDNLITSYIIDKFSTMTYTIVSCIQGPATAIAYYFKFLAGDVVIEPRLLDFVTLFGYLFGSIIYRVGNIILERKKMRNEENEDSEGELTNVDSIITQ
T4 sequence (Q8IDM6 whole entry): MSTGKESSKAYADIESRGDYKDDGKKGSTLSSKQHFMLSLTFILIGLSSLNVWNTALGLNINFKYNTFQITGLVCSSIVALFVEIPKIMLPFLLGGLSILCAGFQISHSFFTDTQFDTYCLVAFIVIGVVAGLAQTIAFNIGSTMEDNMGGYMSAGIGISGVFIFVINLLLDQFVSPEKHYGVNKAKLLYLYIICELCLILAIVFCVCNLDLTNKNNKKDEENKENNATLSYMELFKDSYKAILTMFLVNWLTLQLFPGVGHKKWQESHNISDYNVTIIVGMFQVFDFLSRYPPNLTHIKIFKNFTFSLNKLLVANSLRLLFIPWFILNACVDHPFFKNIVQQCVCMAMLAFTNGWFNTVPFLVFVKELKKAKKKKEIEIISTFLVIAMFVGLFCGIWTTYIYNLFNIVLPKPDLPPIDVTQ
T2 sequence (Q9N623 whole entry A220S/I356L/K76T/N326D): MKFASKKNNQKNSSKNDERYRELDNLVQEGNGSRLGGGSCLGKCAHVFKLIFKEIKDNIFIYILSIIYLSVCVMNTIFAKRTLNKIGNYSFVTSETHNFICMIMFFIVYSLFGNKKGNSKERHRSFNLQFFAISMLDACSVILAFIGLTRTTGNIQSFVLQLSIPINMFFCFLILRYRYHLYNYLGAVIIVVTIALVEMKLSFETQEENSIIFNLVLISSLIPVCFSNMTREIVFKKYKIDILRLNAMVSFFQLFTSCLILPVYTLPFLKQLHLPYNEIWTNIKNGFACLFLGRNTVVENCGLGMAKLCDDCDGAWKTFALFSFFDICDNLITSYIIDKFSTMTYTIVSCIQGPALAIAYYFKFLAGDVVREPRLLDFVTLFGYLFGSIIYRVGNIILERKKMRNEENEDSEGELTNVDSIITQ

`CC(C)[C@H](N)C(=O)O` [L-valine] was tested, and the inhibition at 500 µM [1, 12] was 98 ± 3.6%, the inhibition at 1000 µM [1, 12] was 98 ± 4.6% and the inhibition at 2000 µM [1, 12] was 93 ± 4.1%. The inhibition at 500 µM [1, 13] was 100 ± 2.6%, the inhibition at 1000 µM [1, 13] was 100 ± 2.2% and the inhibition at 500 µM [1, 14] was 100 ± 2.6%. It also gave an inhibition at 1000 µM [1, 14] of 100 ± 2.2%, an inhibition at 2000 µM [1, 14] of 95 ± 1.4% and an inhibition at 500 µM [1, 15] of 98 ± 3.6%. For the same compound, the inhibition at 1000 µM [1, 15] was 98 ± 4.6%, the inhibition at 500 µM [2, 16] was 98 ± 2.5% and the inhibition at 1000 µM [2, 16] was 95 ± 2.6%. The inhibition at 2000 µM [2, 16] was 94 ± 2.5%, the inhibition at 500 µM [2, 17] was 33 ± 1% and the inhibition at 1000 µM [2, 17] was 32 ± 1.3%. It also gave an inhibition at 2000 µM [2, 17] of 31 ± 1.6%, an inhibition at 500 µM [2, 18] of 100 ± 1.5% and an inhibition at 1000 µM [2, 18] of 97 ± 1.7%. The inhibition at 2000 µM [2, 18] was 96 ± 1.5%, the inhibition at 500 µM [2, 19] was 30 ± 0.6% and the inhibition at 1000 µM [2, 19] was 29 ± 1.4%. For the same compound, the inhibition at 2000 µM [2, 19] was 28 ± 0.4%, the “Uptake of [3H]CQ (% non-expressing oocyte control), trans-stimulation” value ([3]; [test solute]i = 5 mM) was 99 ± 4.1 % non-expressing oocyte control and the “Uptake of [3H]CQ (% non-expressing oocyte control), trans-stimulation” value ([3]; [test solute]i = 45 mM (30 mM for some solutes due to solubility)) was 100 ± 2.6 % non-expressing oocyte control. For the same compound, the “Uptake of [3H]CQ (% PfCRTDd2 control), trans-stimulation, non-expressing oocytes” value ([3]; [test solute]i = 5 mM (intracellular)) was 2.6 ± 0.08 % PfCRTDd2 control, the “Uptake of [3H]CQ (% PfCRTDd2 control), trans-stimulation, non-expressing oocytes” value ([3]; [test solute]i = 45 mM (intracellular; 30 mM for some solutes due to solubility)) was 2.7 ± 0.03 % PfCRTDd2 control and the “Tested as potential co-substrate but not required for influx of VF-6 via PfCRT into the oocyte” value [4] was “X”. For the same compound, the “Tested as potential co-substrate but not required for influx of VF-6 via PfCRT into the oocyte” value [5] was “X”, the inhibition at 500 µM [6, 20] was 99 ± 3.6% and the inhibition at 1000 µM [6, 20] was 99 ± 3.9%. The inhibition at 2000 µM [6, 20] was 100 ± 5.5%, the inhibition at 500 µM [6, 21] was 3.1 ± 0.07% and the inhibition at 1000 µM [6, 21] was 3.4 ± 0.01%. The inhibition at 2000 µM [6, 21] was 3.4 ± 0.04%, the inhibition at 500 µM [7, 22] was 2.7 ± 0.05% and the inhibition at 1000 µM [7, 22] was 2.5 ± 0.04%. It also gave an inhibition at 2000 µM [7, 22] of 2.8 ± 0.07%, an inhibition at 500 µM [7, 23] of 100 ± 4.8% and an inhibition at 1000 µM [7, 23] of 101 ± 6.2%. For the same compound, the inhibition at 2000 µM [7, 23] was 99 ± 6.2%, the activity at 5000 µM ([8]; PfNT1 oocytes, [test solute]i = 5 mM, normalised to the oocyte type control, read-out: Uptake of [3H]CQ (% PfNT1 control), trans-stimulation) was 99 ± 2.9% and the activity at 45000 µM ([8]; SEM, read-out: Uptake of [3H]CQ (% PfCRTDd2 control), trans-stimulation, PfNT1) was 2.9 ± 0.04%. The activity at 45000 µM ([8]; read-out: Uptake of [3H]CQ (% PfNT1 control), trans-stimulation) was 100 ± 3.2%, the activity at 5000 µM ([8]; [test solute]i = 5 mM (intracellular), mean ± SEM, SEM, read-out: Uptake of [3H]CQ (% PfCRTDd2 control), trans-stimulation, PfNT1) was 2.7 ± 0.01% and the activity at 5000 µM ([9]; pH 5.5, read-out: PfCRT-mediated [3H]CQ transport, trans-stimulation (% PfCRTDd2 control), [test solute]i = 5 mM (intracellular), PfCRTDd2 oocytes, normalised to oocyte type control) was 97 ± 4.2%. It also gave an activity at 5000 µM ([9]; pH 5.5, read-out: Uptake of [3H]CQ (% PfCRTDd2 control), trans-stimulation, PfCRTDd2, total [3H]CQ transport, [test solute]i = 5 mM (intracellular), mean ± SEM, SEM) of 99 ± 3.2%, an activity at 5000 µM ([9]; pH 5.5, read-out: Uptake of [3H]CQ (% PfCRTDd2 control), trans-stimulation, PfCRTDd2 oocytes, [test solute]i = 5 mM, total [3H]CQ transport, normalised to the oocyte type control) of 99 ± 3.2% and an activity at 45000 µM ([9]; pH 5.5, read-out: Uptake of [3H]CQ (% PfCRTDd2 control), trans-stimulation, PfCRTDd2 oocytes, total [3H]CQ transport, normalised to the oocyte type control) of 97 ± 1.1%. It also gave an activity at 5000 µM ([9]; pH 5.5, read-out: [3H]CQ transport (% PfCRTDd2 control), trans-stimulation, PfCRTDd2, trans-stimulation, [test solute]i = 5 mM (injected), PfCRT-mediated component (background subtracted), mean ± SEM, SEM) of 97 ± 4.2%, an activity at 45000 µM ([9]; pH 5.5, read-out: [3H]CQ transport (% PfCRTDd2 control), trans-stimulation, PfCRTDd2, trans-stimulation, PfCRT-mediated component (background subtracted), mean ± SEM, SEM) of 95 ± 2.5% and an activity at 5000 µM ([10]; pH 5.5, read-out: PfCRT-mediated [3H]CQ transport, trans-stimulation (% PfCRTEcu1110 control), [test solute]i = 5 mM (intracellular), PfCRTEcu1110 oocytes, normalised to oocyte type control) of 96 ± 3.3%. The activity at 5000 µM ([10]; pH 5.5, read-out: Uptake of [3H]CQ (% PfCRTEcu1110 control), trans-stimulation, PfCRTEcu1110 oocytes, [test solute]i = 5 mM, total [3H]CQ transport, normalised to the oocyte type control) was 98 ± 3.6%, the activity at 45000 µM ([10]; pH 5.5, read-out: Uptake of [3H]CQ (% PfCRTEcu1110 control), trans-stimulation, PfCRTEcu1110 oocytes, [test solute]i = 45 mM (30 mM for some solutes due to solubility), total [3H]CQ transport, normalised to the oocyte type control) was 100 ± 2.5% and the activity at 5000 µM ([10]; read-out: Uptake of [3H]CQ (% PfCRTDd2 control), trans-stimulation, PfCRTEcu1110, total [3H]CQ transport, [test solute]i = 5 mM (intracellular), mean ± SEM, SEM) was 35 ± 1.6%. For the same compound, the activity at 45000 µM ([10]; read-out: Uptake of [3H]CQ (% PfCRTDd2 control), trans-stimulation, PfCRTEcu1110, total [3H]CQ transport, [test solute]i = 45 mM (intracellular; 30 mM for some solutes due to solubility), mean ± SEM, SEM) was 36 ± 1.4%, the activity at 5000 µM ([11]; PfCRT3D7 oocytes, [test solute]i = 5 mM, total [3H]CQ transport, normalised to the oocyte type control, read-out: Uptake of [3H]CQ (% PfCRT3D7 control), trans-stimulation) was 98 ± 4.2% and the “[3H]CQ transport (% PfCRT3D7 control), trans-stimulation, PfCRT3D7” value ([11]; SEM) was 0.3 ± 0.01 % PfCRT3D7 control. For the same compound, the activity at 5000 µM ([11]; [test solute]i = 5 mM (intracellular), PfCRT3D7 oocytes, normalised to oocyte type control, read-out: PfCRT-mediated [3H]CQ transport, trans-stimulation (% PfCRT3D7 control)) was 96 ± 3.3%, the activity at 45000 µM ([11]; SEM, read-out: Uptake of [3H]CQ (% PfCRTDd2 control), trans-stimulation, PfCRT3D7) was 3.3 ± 0.01% and the activity at 45000 µM ([11]; read-out: PfCRT-mediated [3H]CQ transport, trans-stimulation (% PfCRT3D7 control)) was 96 ± 2.4%. The activity at 45000 µM ([11]; read-out: Uptake of [3H]CQ (% PfCRT3D7 control), trans-stimulation) was 98 ± 3.7% and the activity at 5000 µM ([11]; total [3H]CQ transport, [test solute]i = 5 mM (intracellular), mean ± SEM, SEM, read-out: Uptake of [3H]CQ (% PfCRTDd2 control), trans-stimulation, PfCRT3D7) was 3.3 ± 0.05%.
